Source: patent US7056917B2, “Drug efflux pump inhibitor” (Daiichi Pharmaceutical Co., Ltd., priority 2001, dated 2006)
Blank lines part the entries; values can stand above or below the compound they belong to.

Columns and labels:
[1] = tested on: Pseudomonas aeruginosa PAM 1723 strain highly expressing the drug efflux pump; assay: Effect of combined use with antimicrobial agent (levofloxacin, aztreonam) on multidrug resistant Pseudomonas aeruginosa; assay type: cell-based; details: 18 hours, MHB; for MPC8 AZT: minimum concentration of test compound required to enhance antibacterial activity of aztreonam at 1/8 or less of MIC; for MPC4 LVFX: minimum concentration of test compound required to enhance antibacterial activity of levofloxacin applied at 1/4 of MIC; for MPC8 LVFX: minimum concentration of test compound required to enhance antibacterial activity of levofloxacin applied at 1/8 or less of MIC
Excerpt: Effect of Combined Use with Antimicrobial Agent on Multidrug Resistant Pseudomonas aeruginosa
As multidrug resistant Pseudomonas aeruginosa, Pseudomonas aeruginosa PAM 1723 strain highly expressing the drug efflux pump was used. As antimicrobial drugs for the combinational uses, levofloxacin (LVFX) as a quinolone antibacterial agent and aztreonam (AZT) as a monobactam antibiotic were used. Each of the compounds shown in Table 1 with Example No., which falls within the compounds of the present invention, was subjected to the measurement of its minimum concentration (μg/ml) that was required to enhance the antibacterial activity of levofloxacin when the test compound was used in combination with levofloxacin applied at a concentration of 1/4, or 1/8 or less of the minimum inhibitory concentration against the PAM 1723 strain. […] Effects as combinational uses for 18 hours was indicated for each of the drugs. Effects were determined by visually observing the turbidity of the medium. The Müller-Hinton broth (MHB, Difco) was used as a medium, and the inoculum of the bacteria was 1×10^6 CFU/ml.

[2] = tested on: Pseudomonas aeruginosa wild strain PAM 1020; assay: Combined use of a pump inhibitor, levofloxacin (LVFX) and meropenem (MEPM) evaluated by the three-dimensional checker board method; assay type: cell-based; details: for MIC: Pseudomonas aeruginosa, agent used alone, PAM 1020 strain
Method: (1) Effect of Combined Used of a Pump Inhibitor, Levofloxacin (LVFX) and Meropenem (MEPM) Evaluated by the Three-Dimensional Checker Board Method
The effect was measured by the three-dimensional checker board method by using Pseudomonas aeruginosa wild strain PAM 1020. The test strain was inoculated into Mueller-Hinton broth containing LVFX, MEPM (at 11 concentration levels and 0 μg/ml) and the compound of Example 26 (40-0.625 μg/ml and 0 μg/ml) at a concentration of 10^6 CFU/ml and cultured at 37° C. for 18 hours. Then, MIC was measured for sole and combined use. Measurement was performed by the checker board method and FIC index was calculated according to the following equation. FIC index=a/a0+b/b0+c/c0 wherein a0: MIC for Agent A used alone, a: MIC for Agent A when Agents A, B and C are used in combination, b0: MIC for Agent B used alone, b: MIC for Agent B when Agents A, B and C are used in combination, c0: MIC for Agent C used alone, c: MIC for Agent C when Agents A, B and C are used in combination.
It was determined that there was synergistic effect when FIC index was 0.75 or less, additive effect or weak synergistic effect when the index was more than 0.75 but not more than 1.125, no effect of combined use when the index was more than 1.125 but not more than 3.0, and antagonistic effect when the index was more than 3.0.

SMILES: CCn1cc(-c2nn[nH]n2)c(=O)c2ccc(/C=C/c3nc(C(C)C)cs3)nc21 [Example 155, 1-Ethyl-7-[(E)-2-(4-isopropyl-1,3-thiazol-2-yl)-1-ethenyl]-3-(1H-1,2,3,4-tetrazol-5-yl)-1,4-dihydro[1,8]naphthylidin-4-one]
MPC8 AZT [1]: 2 µg/mL
MPC4 LVFX [1]: 0.25 µg/mL
MPC8 LVFX [1]: 2 µg/mL

SMILES: CC(C)c1csc(CCc2ccn3c(=O)c(/C=C4/SC(=O)NC4=O)c(N4CCOCC4)nc3c2)n1 [Example 141, 5-(1-{8-[2-(4-Isopropyl-1,3-thiazol-2-yl)ethyl]-2-morpholino-4-oxo-4H-pyrido[1,2-a]pyrimidin-3-yl}methylidene)-1,3-thiazolidine-2,4-dione]
MPC8 AZT [1]: 2 µg/mL
MPC4 LVFX [1]: 0.25 µg/mL
MPC8 LVFX [1]: 16 µg/mL

SMILES: CC(C)c1csc(CCc2ccn3c(=O)c(/C=C/C(=O)[O-])c(N4CCN(C(=O)C[N+]56CCC(CC5)CC6)CC4)nc3c2)n1 [Example 94, (E)-3-{2-4-[2-(1-Azabicyclo[2.2.2]oct-1-yl)acetyl]piperazino-8-[2-(4-isopropyl-1,3-thiazol-2-yl)ethyl]-4-oxo-4H-pyrido[1,2-a]pyrimidin-3-yl}-2-propenoic acid]
MPC8 AZT [1]: 16 µg/mL
MPC4 LVFX [1]: 4 µg/mL
MPC8 LVFX [1]: 16 µg/mL

SMILES: CC(C)c1csc(CCc2ccn3c(=O)c(/C=C(\F)C(=O)O)c(N4CCOCC4)nc3c2)n1 [Example 135, (Z)-2-Fluoro-3-{8-[2-(4-isopropyl-1,3-thiazol-2-yl)ethyl]-2-morpholino-4-oxo-4H-pyrido[1,2-a]pyrimidin-3-yl}-2-propenoic acid]
MPC8 AZT [1]: 8 µg/mL
MPC4 LVFX [1]: 4 µg/mL
MPC8 LVFX [1]: 16 µg/mL

MIC [2]: 0.25 µg/mL
SMILES: C[C@H]1COc2c(N3CCN(C)CC3)c(F)cc3c(=O)c(C(=O)O)cn1c23 [LVFX, levofloxacin]
FIC index ([2]; LVFX + MEPM 0.016 μg/ml, compound of Example 26 0 μg/ml, PAM 1020): 1.031
FIC index ([2]; LVFX + MEPM 0.0313 μg/ml, compound of Example 26 0 μg/ml, PAM 1020): 1.0625
FIC index ([2]; LVFX + MEPM 0.0625 μg/ml, compound of Example 26 0 μg/ml, PAM 1020): 1.125
FIC index ([2]; LVFX + MEPM 0.125 μg/ml, compound of Example 26 0 μg/ml, PAM 1020): 1.250
FIC index ([2]; LVFX + MEPM 0.25 μg/ml, compound of Example 26 0 μg/ml, PAM 1020): 1.5
LVFX conc. ([2]; LVFX conc. in combination with MEPM 0.016 μg/ml and compound of Example 26 0.625 μg/ml, PAM 1020): 0.25 µg/mL
LVFX conc. ([2]; LVFX conc. in combination with MEPM 0.016 μg/ml and compound of Example 26 1.25 μg/ml, PAM 1020): 0.25 µg/mL
LVFX conc. ([2]; LVFX conc. in combination with MEPM 0.016 μg/ml and compound of Example 26 2.5 μg/ml, PAM 1020): 0.25 µg/mL
LVFX conc. ([2]; LVFX conc. in combination with MEPM 0.016 μg/ml and compound of Example 26 5 μg/ml, PAM 1020): 0.125 µg/mL
LVFX conc. ([2]; LVFX conc. in combination with MEPM 0.016 μg/ml and compound of Example 26 10 μg/ml, PAM 1020): 0.125 µg/mL
LVFX conc. ([2]; LVFX conc. in combination with MEPM 0.016 μg/ml and compound of Example 26 20 μg/ml, PAM 1020): 0.125 µg/mL
LVFX conc. ([2]; LVFX conc. in combination with MEPM 0.016 μg/ml and compound of Example 26 40 μg/ml, PAM 1020): 0.125 µg/mL
LVFX conc. ([2]; LVFX conc. in combination with MEPM 0.016 μg/ml, compound of Example 26 0 μg/ml, PAM 1020): 0.25 µg/mL
LVFX conc. ([2]; LVFX conc. in combination with MEPM 0.0313 μg/ml and compound of Example 26 0.625 μg/ml, PAM 1020): 0.25 µg/mL
LVFX conc. ([2]; LVFX conc. in combination with MEPM 0.0313 μg/ml and compound of Example 26 1.25 μg/ml, PAM 1020): 0.25 µg/mL
LVFX conc. ([2]; LVFX conc. in combination with MEPM 0.0313 μg/ml and compound of Example 26 2.5 μg/ml, PAM 1020): 0.125 µg/mL
LVFX conc. ([2]; LVFX conc. in combination with MEPM 0.0313 μg/ml and compound of Example 26 5 μg/ml, PAM 1020): 0.125 µg/mL
LVFX conc. ([2]; LVFX conc. in combination with MEPM 0.0313 μg/ml and compound of Example 26 10 μg/ml, PAM 1020): 0.125 µg/mL
LVFX conc. ([2]; LVFX conc. in combination with MEPM 0.0313 μg/ml and compound of Example 26 20 μg/ml, PAM 1020): 0.125 µg/mL
LVFX conc. ([2]; LVFX conc. in combination with MEPM 0.0313 μg/ml and compound of Example 26 40 μg/ml, PAM 1020): 0.125 µg/mL
LVFX conc. ([2]; LVFX conc. in combination with MEPM 0.0313 μg/ml, compound of Example 26 0 μg/ml, PAM 1020): 0.25 µg/mL
LVFX conc. ([2]; LVFX conc. in combination with MEPM 0.0625 μg/ml and compound of Example 26 0.625 μg/ml, PAM 1020): 0.25 µg/mL
LVFX conc. ([2]; LVFX conc. in combination with MEPM 0.0625 μg/ml and compound of Example 26 1.25 μg/ml, PAM 1020): 0.125 µg/mL
LVFX conc. ([2]; LVFX conc. in combination with MEPM 0.0625 μg/ml and compound of Example 26 2.5 μg/ml, PAM 1020): 0.125 µg/mL
LVFX conc. ([2]; LVFX conc. in combination with MEPM 0.0625 μg/ml and compound of Example 26 5 μg/ml, PAM 1020): 0.0625 µg/mL
LVFX conc. ([2]; LVFX conc. in combination with MEPM 0.0625 μg/ml and compound of Example 26 10 μg/ml, PAM 1020): 0.0625 µg/mL
LVFX conc. ([2]; LVFX conc. in combination with MEPM 0.0625 μg/ml and compound of Example 26 20 μg/ml, PAM 1020): 0.0313 µg/mL
LVFX conc. ([2]; LVFX conc. in combination with MEPM 0.0625 μg/ml and compound of Example 26 40 μg/ml, PAM 1020): 0.0313 µg/mL
LVFX conc. ([2]; LVFX conc. in combination with MEPM 0.0625 μg/ml, compound of Example 26 0 μg/ml, PAM 1020): 0.25 µg/mL
LVFX conc. ([2]; LVFX conc. in combination with MEPM 0.125 μg/ml and compound of Example 26 0.625 μg/ml, PAM 1020): 0.125 µg/mL
LVFX conc. ([2]; LVFX conc. in combination with MEPM 0.125 μg/ml and compound of Example 26 1.25 μg/ml, PAM 1020): 0.0625 µg/mL
LVFX conc. ([2]; LVFX conc. in combination with MEPM 0.125 μg/ml and compound of Example 26 2.5 μg/ml, PAM 1020): 0.0313 µg/mL
LVFX conc. ([2]; LVFX conc. in combination with MEPM 0.125 μg/ml and compound of Example 26 5 μg/ml, PAM 1020): 0.0156 µg/mL
LVFX conc. ([2]; LVFX conc. in combination with MEPM 0.125 μg/ml and compound of Example 26 10 μg/ml, PAM 1020): 0.0039 µg/mL
LVFX conc. ([2]; LVFX conc. in combination with MEPM 0.125 μg/ml, compound of Example 26 0 μg/ml, PAM 1020): 0.25 µg/mL
LVFX conc. ([2]; LVFX conc. in combination with MEPM 0.25 μg/ml and compound of Example 26 0.625 μg/ml, PAM 1020): 0.0078 µg/mL
LVFX conc. ([2]; LVFX conc. in combination with MEPM 0.25 μg/ml, compound of Example 26 0 μg/ml, PAM 1020): 2 µg/mL

SMILES: CC(C)(C)c1csc(NC(=O)c2ccn3c(=O)c(/C=C/C(=O)O)c(N4CCC[C@@H](OC(N)=O)C4)nc3c2)n1 [Example 18, (E)-3-[2-{(3R)-3-[(Aminocarbonyl)oxy]hexahydro-1-pyridinyl}-8-({[4-(tert-butyl)-1,3-thiazol-2-yl]amino}carbonyl)-4-oxo-4H-pyrido[1,2-a]pyrimidin-3-yl]-2-propenoic acid]
MPC8 AZT [1]: 0.5 µg/mL
MPC4 LVFX [1]: ≦0.25 μg/ml
MPC8 LVFX [1]: 1 µg/mL

SMILES: CC(C)c1csc(CCc2ccn3c(=O)c(/C=C/C(=O)O)c(SCC(N)=O)nc3c2)n1 [Example 152, (E)-3-{2-Aminocarbonylmethylthio-8-[2-(4-isopropyl-1,3-thiazol-2-yl)-ethyl]-4-oxo-4H-pyrido[1,2-a]pyrimidin-3-yl}-2-propenoic acid]
MPC8 AZT [1]: 4 µg/mL
MPC4 LVFX [1]: 2 µg/mL
MPC8 LVFX [1]: 8 µg/mL

SMILES: CC(C)c1csc(COc2ccn3c(=O)c(/C=C/C(=O)O)c(N4CCCC(O)C4)nc3c2)n1 (centres unmarked) [Example 5, (E)-3-{2-(3-Hydroxypiperidino)-8-[(4-isopropyl-1,3-thiazol-2-yl)methoxy]-4-oxo-4H-pyrido[1,2-a]pyrimidin-3-yl}-2-propenoic acid]
MPC8 AZT [1]: 8 µg/mL
MPC4 LVFX [1]: 0.5 µg/mL
MPC8 LVFX [1]: 8 µg/mL

MIC [2]: 0.5 µg/mL
SMILES: C[C@@H](O)[C@H]1C(=O)N2C(C(=O)O)=C(S[C@@H]3CN[C@H](C(=O)N(C)C)C3)[C@H](C)[C@H]12 [MEPM, Meropenem]
effect of combined use of three types of drugs ([2]; LVFX, MEPM and compound of Example 26 0.625-40 μg/ml, PAM 1020): apparent effects of the addition of MEPM were observed
effect of MEPM on the combined use of two types of drugs, LVFX and the compound of Example 26 ([2]; compound of Example 26 0.625-40 μg/ml, PAM 1020): effects of the addition of MEPM were clearly observed
